Measurements: US20040087606A1, “Shivering suppression during cooling to lower body temperature” (priority 2002, published 2004)
Several values for one entry are separate records, joined by “and”; a condition that tells them apart may be missing. Equal values may be shown once.

Legend:
Type in all cases: in vivo, human
healthy subjects [1] = experiment: Phase 4: as Phase 3a, meperidine plus oral buspirone
Procedure: (§1) Five contact pads are applied to the thighs, back and abdomen of each subjects, and actively cooled. Temperatures are measured in the same manner as in Phase 1 except that the rectal temperature probe is connected to a control module and the rectal temperature signal is used by the control module to adjust inlet water temperature via a feedback control algorithm to achieve a target core body temperature of 34.5° C.
(§2) A single oral dose of acetaminophen (1000 mg), is administered within 20 minutes prior to treatment. A bolus of IV meperidine (Demerol®, 50-100 mg) is given within 5 minutes of the start of active cooling. Additional doses of meperidine are administered to maintain comfort and to prevent shivering. Active cooling and maintenance of hypothermia continues for five hours. As in the Phase 1, the subjects are actively re-warmed to a tympanic temperature of 36° C. prior to termination of the experiment. Shivering, comfort, oxyhemoglobin saturation, and arterial blood pressure are recorded as in Phase 1.
Phase 4 proceeds as described for Phase 3a, except as noted. In addition to meperidine (Demerol®), subjects are also given an oral dose of 30-60 mg buspirone.

healthy subjects [2] = experiment: Phases 1 and 3a taken together: haemodynamics, comfort, respiratory compromise, nausea
Procedure: (§3) Four contact pads are applied to the thighs and chest of each subject and each subject is rapidly cooled with an objective of reducing core body temperature to 34-35° C. Core body temperatures are measured at the tympanic membrane and the rectum. Mean skin-surface temperature is determined from the weighted average of calf, thigh, chest, and upper arm skin temperatures. Thermoregulatory vasoconstriction is evaluated using forearm minus fingertip skin-temperature gradients. Temperatures are measured using Mon-a-Therm™ themocouple probes connected to Mallinckrodt Model 6510 two-channel electronic thermometers having an accuracy near 0.1° C. (Mallinckrodt Anesthesia Products, St. Louis, Mo., U.S.A.). Temperatures are recorded before cooling is started (i.e., baseline) and subsequently at 15-minute intervals.
(§4) Each of subjects 1-5 is administered a single dose of acetomiophen (1000 mg) within 20 minutes prior to treatment and is administered a bolus of intravenous (IV) meperidine (Demerol®, 25-75 mg) within 5 minutes of the start of cooling. Subjects also receive initial doses of chlorpromazine (Thorazine®12.5-25 mg, IV). Active cooling is initiated and the inlet water temperature is controlled to achieve a target tympanic temperature between 34° C. and 35° C. Additional doses of meperidine and/or chloropromazine are administered to maintain comfort and to prevent shivering. Active cooling and maintenance of hypothermia continues for up to five hours, after which subjects are actively re-warmed to a tympanic temperature of 36° C.
(§5) The presence of shivering is noted by physical examination, electromyographic artifact on continuous electrocardiography (ECG), or by subject report. Overall thermal comfort is evaluated at 15-min intervals with a 100-mm-long visual analog scale (VAS) on which 0 mm defines the worst imaginable cold, 50 mm identifies thermal neutrality, and 100 mm indicates unbearable heat. A new, unmarked scale is used for each assessment. Heart rate and oxyhemoglobin saturation are monitored using ECG and pulse oximetry; arterial blood pressure is recorded oscillometrically at 15-minute intervals.
as §1, §2

healthy subjects [3] = experiment: Phase 1: induced mild hypothermia by contact-pad cooling with meperidine for shivering suppression
Source text: (§6) Mild hypothermia is induced and maintained in healthy subjects for up to several hours. Each volunteer is cooled using contact pads (Arctic Sun Energy Transfer Pads™, Medivance, Inc., Louisville, Colo., U.S.A.). Contact pads are applied to contact the subjects, and water at a controlled temperature is delivered to and circulated through the contact pads to effect the controlled cooling of each volunteer.
as §3, §4, §5

healthy subjects [4] = experiment: Phase 5: as Phase 3a, meperidine plus IV ondansetron
Procedure: as §1, §2
Phase 5 proceeds as described for Phase 3a, except as noted. The temperature of water circulated to the contact pads is controlled to achieve a target core body temperature of 34.5° C. In addition to meperidine (Demerol®), subjects are also given an IV dose of 8 mg ondansetron (hydrochloride salt, Glaxo Wellcome).

healthy subjects [5] = experiment: Phase 3a: contact-pad cooling to target core temperature 34.5° C. with meperidine
Source text: as §6, §1, §2

[6] = Phase 4, individual subjects, meperidine plus oral buspirone 30-60 mg
[7] = Phase 4, mean ± SD, 4 subjects, meperidine plus buspirone
[8] = Phase 5, individual subjects, meperidine plus IV ondansetron 8 mg
[9] = Phase 5, mean ± SD, 4 subjects, meperidine plus ondansetron
[10] = individual subjects, meperidine

O=C1CC2(CCCC2)CC(=O)N1CCCCN1CCN(c2ncccn2)CC1 [buspirone]
Effect on incidence of nausea (healthy subjects [1]; in vivo): did not reduce the incidence of nausea

CCOC(=O)C1(c2ccccc2)CCN(C)CC1 [meperidine]
Systolic blood pressure (healthy subjects [2]; 180 min timepoint, baseline 122±13, p=0.042): 140±20 mm Hg | Respiratory compromise (healthy subjects [2]; Phases 1 and 3a): no respiratory compromise is observed | Subjects in whom nausea is observed (healthy subjects [2]; Phases 1 and 3a, all cases in Phase 3a): 30% | Change in blood oxygenation compared with baseline (healthy subjects [2]; all subjects, during cooling): no statistically significant change | Change in diastolic blood pressure compared with baseline (healthy subjects [2]; all subjects, during cooling): no statistically significant change | Change in heart rate compared with baseline (healthy subjects [2]; all subjects, during cooling): no statistically significant change | Cooling rate to 35° C. (healthy subjects [1]; [6]): 1.1 ° C./hr (2×) and 1.9 ° C./hr and 0.8 ° C./hr | Nausea or Vomiting During Treatment (healthy subjects [1]; [6]): Nausea early, and Vomiting end and None and Nausea mid and Nausea end | Time to 35° C. (healthy subjects [1]; [6]): 105 min and 95 min and 63 min and 158 min | Total Meperidine Dose (healthy subjects [1]; Phase 4, individual subjects, with oral buspirone 30-60 mg): 250 mg (3×) and 400 mg | Mean cooling rate to 35° C. (healthy subjects [1]; [7]): 1.2 ± .5 ° C./hr | Mean time to 35° C. (healthy subjects [1]; [7]): 105 ± 39 min | Mean total meperidine dose (healthy subjects [1]; Phase 4, mean ± SD, 4 subjects, with buspirone): 288 ± 75 mg | Attainment of mild hypothermia (healthy subjects [3]; Phase 1): attained in all subjects | Total Meperidine Dose (healthy subjects [3]; Phase 1, individual subjects, given as needed to maintain comfort and prevent shivering, up to five hours): 275 mg and 375 mg and 475 mg and 75 mg and 200 mg | Nausea or Vomiting During Treatment (healthy subjects [3]; Phase 1, individual subjects, meperidine): Pruritis and None (4×) | Cooling rate to 35° C. (healthy subjects [3]; Phase 1, individual subjects, meperidine for shivering suppression): 1.4 ° C./hr and 1.0 ° C./hr and 1.5 ° C./hr and 2.6 ° C./hr and 1.2 ° C./hr | Time to 35° C. (healthy subjects [3]; Phase 1, individual subjects, tympanic temperature, IV meperidine 25-75 mg bolus plus additional doses, acetaminophen 1000 mg, chlorpromazine in subjects 1 and 2): 81 min and 105 min and 78 min and 41 min and 82 min | Mean cooling rate to 35° C. (healthy subjects [3]; Phase 1, mean ± SD, 5 subjects): 1.5±0.6 ° C./hr and 1.5 ± .6 ° C./hr | Mean time to reach a tympanic temperature of 35° C. (healthy subjects [3]; Phase 1, mean ± SD, 5 subjects): 77+23 min and 77 ± 23 min | Mean total dosage of meperidine (healthy subjects [3]; Phase 1, mean ± SD, 5 subjects): 280 ± 155 mg and 280 mg | Attainment of mild hypothermia (healthy subjects [4]; Phase 5): attained in all subjects | Cooling rate to 35° C. (healthy subjects [4]; [8]): 1.5 ° C./hr and 1.4 ° C./hr and 1.6 ° C./hr and 1.9 ° C./hr | Nausea or Vomiting During Treatment (healthy subjects [4]; [8]): None (2×) and Nausea post and Nausea and vomiting | Time to 35° C. (healthy subjects [4]; [8]): 80 min and 58 min and 88 min and 60 min | Total Meperidine Dose (healthy subjects [4]; Phase 5, individual subjects, with IV ondansetron 8 mg): 275 mg and 250 mg and 325 mg and 375 mg | Mean cooling rate to 35° C. (healthy subjects [4]; [9]): 1.6 ° C./hr and 1.6 ± .2 ° C./hr | Mean time to reach a tympanic temperature of 35.0° C. (healthy subjects [4]; [9]): 72 ± 15 min | Mean total dosage of meperidine (healthy subjects [4]; Phase 5, mean ± SD, 4 subjects, with ondansetron): 306 ± 55 mg | Withdrawal of a subject for adverse reaction to meperidine (healthy subjects [4]; Phase 5, one of five enrolled, caused a facial rash): mild allergic reaction | Total Meperidine Dose (healthy subjects [5]; individual subjects, as needed to maintain comfort and prevent shivering, five hours): 400 mg and 500 mg and 350 mg (2×) and 250 mg | Cooling rate to 35° C. (healthy subjects [5]; [10]): 1.9 ° C./hr and .9 ° C./hr and 1.2 ° C./hr and 1.7 ° C./hr and 1.4 ° C./hr | Nausea or Vomiting During Treatment (healthy subjects [5]; [10]): Nausea end (2×) and None and Nausea early, and Nausea, and vomiting mid | Time to 35° C. (healthy subjects [5]; individual subjects, tympanic temperature, IV meperidine 50-100 mg bolus plus additional doses, acetaminophen 1000 mg): 64 min and 180 min and 95 min and 56 min and 53 min | Mean cooling rate to 35° C. (healthy subjects [5]; mean ± SD, 5 subjects): 1.4±0.4 ° C./hr and 1.4 ± .4 ° C./hr | Mean time to reach a tympanic temperature of 35° C. (healthy subjects [5]; mean ± SD, 5 subjects): 90 ± 53 min | Mean total dosage of meperidine (healthy subjects [5]; mean ± SD, 5 subjects): 370 ± 91 mg and 370 mg

Cc1nccn1CC1CCc2c(c3ccccc3n2C)C1=O (stereo not drawn) [ondansetron]
Meperidine administration in Phase 5 relative to Phase 3a (healthy subjects [4]; p=0.26, t-test, ondansetron 8 mg IV): trend toward less meperidine administration
